Patent US11149028B2, “Methods for treating melanoma using small molecules” (NOVA SOUTHEASTERN UNIVERSITY, priority 2016, dated 2021)
Entries after “also recorded” stand apart in the source; their conditions may differ.

Experiments:
[1] = system: WM266-4 cells; assay: Cell staining for autophagy (autophagosome dye); format: cell-based, human; details: dansylated analog, 25 μM
Description: WM266-4 cells were seeded at 10,000 cells/well in 0.1 mL of E-MEM medium supplemented with 10% FBS and 1% penicillin/streptomycin in 96 well plates (Greiner Bio-One CellStar cat #655180) and allowed to adhere overnight. After overnight incubation 100 μM 2155-14, 2155-18, 50 nM hnRNPH2 siRNA or 25 μM 2476-67.2 were added and incubated for various length of time. Cells were rinsed with warm PBS and stained with CYTO-ID® 1.0 Autophagy reagent (Enzo ENZ-51031-0050) and counterstained with DAPI. Cells were imaged using Cytation 5 imager (Biotek Inc, Winooski, Vt.) using GFP and DAPI filter sets. For % autophagic cells calculations cell counts were conducted using DAPI-stained nuclei and Object Sum Area value was obtained from at least 1,000 cells/well using DAPI channels. To obtain number of cells undergoing autophagy the cell count was conducted using GFP channel. Both GFP and DAPI cell counts were conducted using optimized algorithm in automatic mode. 8 replicate wells were used. % autophagic cells was calculated using Equation 1:% autophagic cells=100%*(number of cells, GFP channenumber of cells, DAPI channel)
To calculate staining intensity, the Object Sum Area value from GFP channel was obtained and divided by number of cells using DAPI channel. Both GFP and DAPI cell counts were conducted using optimized algorithm in automatic mode. 3 replicate wells were used.

[2] = system: LC3-II and beclin-1 in WM266-4 cells; assay: Western blotting for LC3 and beclin-1, WM266-4; format: cell-based, human
Description: (§1) 1×10^6 of WM266-4 or M14 cells were seeded in 3 mL of E-MEM or RPMI-1640 medium supplemented with 10% FBS and 1% penicillin/streptomycin in 6 cm plates. […] After washing with TBST, the membranes were treated with chemilumiscent horseradish peroxidase detection reagent (Thermo Scientific, Cat #32209) and exposed to autoradiography film (Denville Scientific, Inc., Metuchen, N.J., USA, cat #E3018). ImageJ software (NIH, Bethesda, Md.) was used to quantify the intensity of proteins bands. The protein bands were normalized against loading controls (β-actin) and expressed as a fold of an untreated control.

[3] = system: cleaved lamin A/C in WM266-4 cells; assay: Western blotting for lamin A/C cleavage; format: cell-based, human
Description: as §1, with “controls.” for “controls (β-actin) and expressed as a fold of an untreated control.”

[4] = system: WM266-4 cells; assay: Cell staining with dansylated derivatives of 2155-14; format: cell-based, human; details: 100 μM
Description: WM266-4 cells were seeded at 10,000 cells/well in 0.1 mL of E-MEM medium supplemented with 10% FBS and 1% penicillin/streptomycin in 96 well plates (Greiner Bio-One CellStar cat #655180) and allowed to adhere overnight. After overnight incubation cells were stained with 100 μM of fluorescent analogs of 2155-14 for various length of time, and rinsed with warm PBS. Cells were imaged using Cytation 5 imager (Biotek Inc, Winooski, Vt.) using custom filter set: λexcitation=377/50 and λemission=542/27 nm.

[5] = system: HSP90; details: human, in vivo; cited from earlier work
[6] = system: mouse embryonic fibroblasts (MEF); assay: Viability of mouse embryonic fibroblasts; format: cell-based
Description: (§2) Cells were plated in 384-well plates in 8 μL of media. Test compounds and dabrafenib (pharmacological assay control) were prepared as 10-point, 1:3 serial dilutions starting at 300 μM, then added to the cells (4 μL per well) using the Biomek Plates were incubated for 72 h at 37° C., 5% CO2 and 95% relative humidity. After incubation, 4 μL of CellTiter-Glo® (Promega cat #: G7570) were added to each well, and incubated for 15 min at room temperature. Luminescence was recorded using a Biotek Synergy H4 multimode microplate reader. Viability was expressed as a percentage relative to wells containing media only (0%) and wells containing cells treated with DMSO only (100%). Three parameters were calculated on a per-plate basis: (a) the signal-to-background ratio (SB); (b) the coefficient for variation [CV; CV=(standard deviation/mean)×100)] for all compound test wells; and (c) the Z′-factor (18). The IC50 value of the pharmacological control (dabrafenib, LC Laboratories #G-4408) was also calculated to ascertain the assay robustness. In case of viability rescue assays, cells were pre-treated with caspase, calpain, and autophagy inhibitors for 1-3 h before addition of test compounds. Time course viability assay was done with luminescence measurements performed at 4, 24, 48, and 72 h.

[7] = system: WM266-4 cells; assay: CellTiter-Glo cell viability assay, WM266-4 (including rescue assays); format: cell-based, human
Description: as §2

[8] = system: hnRNP A2/B1; assay: Pull-down with biotinylated analogs, western blot; format: binding, human; details: WM266-4 lysates
Description: (§3) WM-266-4 and M14 cells were sonicated in RIPA lysis buffer containing added protease inhibitors. Affinity beads were prepared by addition of the 0.3 mg biotinylated probes to the 50 μL of streptavidin agarose resin, which was washed three times with the lysis buffer. Following incubation at 4° C. for 1 h, the obtained affinity beads complexed with biotinylated compounds were washed three times with lysis buffer to remove any unbound materials. The cell lysates (1 mg protein content) were then added to the probe-bound beads, and samples were incubated at 4° C. for 1 h and overnight on a rotator. Following 5 washes with lysis buffer, the samples were subjected to SDS-PAGE. The gels were stained overnight with colloidal blue (Invitrogen). Gel bands of interest were excised, reduced, carbidomethylated, dehydrated, and digested with Trypsin Gold (Promega) as per manufacturers' instructions. Following digestion, peptides were extracted, all fractions were combined, and the volume was reduced in a SpeedVac to near dryness, and re-suspended to 20 μL using 95% ddH2O/5% ACN/0.1% formic acid (FA) prior to analysis by 1D reversed-phase LC-nESI-MS2 (as outlined below) (Ludwig, M. R. et al. Surveying the serologic proteome in a tissue-specific kras(G12D) knockin mouse model of pancreatic cancer. Proteomics 16, 516-531, doi:10.1002/pmic.201500133 2016).
(§4) WM-266-4 cells were sonicated in RIPA lysis buffer containing protease inhibitors. Affinity beads were prepared by addition of the biotinylated probes (0.3 mg) to the streptavidin agarose resin (50 μL), which was first washed three times with the lysis buffer. […] The protein extract (1 mg) was then added to the probe-bound beads, and samples were incubated at 4° C. overnight. Following 5 washes with lysis buffer, the protein isolates were subjected to SDS-PAGE followed by transfer to nitrocellulose membrane. hnRNP H2 was detected using rabbit polyclonal antibody (Abgent #: AP13497b; 1:3,000, in 2% milk overnight), DDX1 monoclonal antibody (Santa Cruz #sc-271393, 1:1,000 in 2% BSA overnight), or hnRNP B1/A2 monoclonal antibody (Santa Cruz #SC-32316, 1:1,000 in 2% BSA overnight). After washing with TBST, the membranes were treated with chemilumiscent horseradish peroxidase detection reagent (Thermo Scientific, Cat #32209) and exposed to autoradiography film (Denville Scientific, Inc., Metuchen, N.J., USA, cat #E3018). ImageJ software (NIH, Bethesda, Md.) was used to quantify the intensity of proteins bands. The protein bands were normalized against loading controls.

[9] = system: hnRNP H2; assay: Pull-down with biotinylated analogs, western blot; format: binding, human; details: WM266-4 lysates
Description: as §3, §4

[10] = system: calpain in WM266-4 cells; assay: Calpain activity assay (Calpain-Glo); format: cell-based, human; details: 25 μM inhibitor, 100 μM 2155-14
Description: The Calpain-Glo Protease Assay (Promega cat #) was used to measure the calpain enzyme activity in live cells, according to the manufacturer's instructions. 1,250 of WM-266-4 cells were plated in 384-well white TC-treated plates in 5 μL of serum-free EMEM media. The cells were incubated overnight at 37° C., 5% CO2 and 95% relative humidity and 5 μL of test compounds 2155-14, (100 μM), calpain inhibitor III and PD151746 (25 μM) were added alone or in combination and incubated at 37° C., 5% CO2, and 95% relative humidity for 0.5, 4, and 24 h. After incubation, 10 μL, of a freshly prepared dilution of the Calpain-Glo Reagent stock solution (consisting of Suc-LLVY-Glo™ substrate, Calpain-Glo™ buffer, Luciferin Detection Reagent, and CaCl2) was added to cells at above mentioned times and luminescence was recorded with a Neo 2 microplate reader (Biotek Inc). All experiments were performed in triplicate and the values provided are the calculated average of at least three independent experiments.

CN(C)c1cccc2c(S(=O)(=O)NCCN3C(=O)C(=O)N([C@H](CC4CCCCC4)CN4CCC[C@H]4CN4C(=O)C(=O)NC[C@@H]4Cc4ccccc4)C[C@@H]3Cc3ccc(O)cc3)cccc12 [Compound 2476-67.2, N-(2-((S)-4-((R)-1-((S)-2-(((S)-6-benzyl-2,3-dioxopiperazin-1-yl)methyl)pyrrolidin-1-yl)-3-cyclohexylpropan-2-yl)-6-(4-hydroxybenzyl)-2,3-dioxopiperazin-1-yl)ethyl)-5-(dimethylamino)naphthalene-1-sulfonamide]
autophagosome dye staining [1]: intensive green staining | LC3-II level ([2]; 2.5 μM, 24 hr): no cleavage of lamin A/C or increase of levels of LC3-II was detected | LC3 western blot ([2]; 5 μM, 24 hr): neither of LC3 isoforms nor actin were detected | lamin A/C cleavage ([3]; 2.5 μM, 24 hr): no cleavage of lamin A/C | lamin A/C western blot ([3]; 5 μM, 24 hr): striking increase of cleaved lamin A/C | staining of cytoplasm [4]: Diffuse staining of the cytoplasm | staining of nuclear envelope ([4]; 1 h up to 48 h): stains nuclear membrane in both WM266-4 and M14 cells

C=CCNC1=C2C[C@@H](C)C[C@H](OC)[C@H](O)[C@@H](C)/C=C(\C)[C@H](OC(N)=O)[C@@H](OC)/C=C\C=C(/C)C(=O)NC(=CC1=O)C2=O [Compound 17-AAG]
clinical outcome in patients carrying BRAF or NRAS mutation [5]: melanoma stabilization

CCCS(=O)(=O)Nc1ccc(F)c(C(=O)c2c[nH]c3ncc(-c4ccc(Cl)cc4)cc23)c1F [vemurafenib, reference compound]
toxicity to mouse embryonic fibroblasts [6]: toxic

O=C(CCCC[C@@H]1SC[C@@H]2NC(=O)N[C@@H]21)NCCCC[C@H]1CNC(=O)C(=O)N1C[C@@H]1CCCN1C[C@@H](CC1CCCCC1)N1C[C@H](Cc2ccc(O)cc2)N(CCc2ccccc2)C(=O)C1=O [Compound 2529-3, N-(4-((S)-1-(((S)-1-((R)-3-cyclohexyl-2-((S)-5-(4-hydroxybenzyl)-2,3-dioxo-4-phenethylpiperazin-1-yl)propyl)pyrrolidin-2-yl)methyl)-5,6-dioxopiperazin-2-yl)butyl)-5-((3aS,4S,6aR)-2-oxohexahydro-1H-thieno[3,4-d]imidazol-4-yl)pentanamide]
IC50 ([7]; Homo sapiens, WM 266-4, 72 h, 72 h): > 100 µM | cytotoxicity at 100 µM ([7]; Homo sapiens, WM 266-4, 100 μM, 72 h, read-out: maximal inhibition of cell viability): 42% | LC3-II level ([2]; 100 μM, 24 h): did not significantly increase | cleaved lamin A/C level ([3]; 100 μM, 24 h): did not significantly increase; also recorded: had no effect on cleavage of lamin A/C | hnRNP A2/B1 in pulldown, western blot [8]: no bands were found | hnRNP H2 in pulldown, western blot [9]: two bands; also recorded: much less abundant

O=C(O)/C(S)=C/c1c[nH]c2ccc(F)cc12 [PD151746, reference compound]
cell viability restored in presence of 2155-14 ([7]; 24 h, 25 μM inhibitor, 100 μM 2155-14): ~75% | cell viability restored in presence of 2155-14 ([7]; 48 h, 25 μM inhibitor, 100 μM 2155-14): ~50% | cell viability in presence of 2155-14 ([7]; 72 h, 25 μM inhibitor, 100 μM 2155-14): all cells were dead | calpain activity induced by 2155-14 after calpain inhibitor pre-treatment [10]: shut down calpain activity induced by 2155-14 at 30 min and 4 h but not at 24 h
